The source of these data is EP4818152A1, “METHOD FOR PREPARING L-SERINE HYDROCHLORIDE AND USE THEREOF” (Astrogen, Inc., priority 2023, dated 2025).

Where two headings read alike, the source gives them in different places.

The AUC(0-t) is exposure summed from dosing to a finite time, without extrapolation to infinity. A low value points to less exposure. A word on the Cmax: it is the highest concentration seen after dosing. The term Tmax denotes the time at which the peak concentration occurs. The half-life is the time in which the quantity being followed falls by half. A high value points to slow decline.

Data set [1] is described as follows: Storage stability in aqueous solution (discoloration, precipitation). Format: physicochemical. The following applies: stored in an aqueous solution at room temperature for one month.
In data set [2] the test system is valproic acid (VPA)-induced autism model mice. As to the kind of experiment: Three-chamber test of social interaction in VPA-induced autism model mice. It is filed as in vivo. To be noted: oral, 14 days from day 21 after birth; 3-chamber test 35 days after birth; versus vehicle-treated VPA mice. The procedure:
In order to perform a behavioral experiment on valproic acid (VPA)-induced autism model mice using L-serine hydrochloride prepared in Example 3, 600 mg/kg of VPA dissolved in 0.9% NaCl saline was administered subcutaneously to pregnant dams to obtain 14 VPA-induced autism model mice. Meanwhile, 8 pups born to the dams that were not administered VPA were used as a control group. […] The drug was orally administered at a dose of 10 mL/kg per day based on the individual's body weight, which is equivalent, on a molar basis, to administering 400 mg/kg of L-serine hydrochloride to humans.
Thirty-five days after birth, the mice's social interaction abilities were tested using a three-chamber test. Social novelty was evaluated based on the interaction time during an initial encounter with a novel mouse compared with a re-encounter with a familiar mouse. Sociability reflects the degree of social interaction between a mouse and another mouse, and was measured by evaluating the interaction time that the mouse spent interacting with another mouse located in one side of an empty chmber.

Data set [3] can be described thus: Mouse PK experiment (serum levels by LC-MS/MS).
Protocol: (§1) -6, -4, -2, and 0 hours before drug administration and 0.25, 0.5, 1, 3, 6, 9, and 12 hours after drug administration, the experimental mice were placed in a restrainer, a 2 mm incision was made at the tip of the tail, and about 40-50 µL of blood was collected into a heparin capillary tube while massaging the tail. […] Blood samples were transferred to 2 mL tubes and centrifuged at 2000× g for 10 minutes to separate the serum, which was then transferred to new tubes at about 20-25 µL per sample. […] The internal standard D, L-serine-2,3,3-d3 stock solution was prepared at a concentration of 60 µg/mL for preparing a calibration curve and at 2 µg/mL for spiking into samples. To prepare the reagents required for creating the calibration curve, 10 µL of the diluted stock solution and 10 µL of the internal standard solution (D, L-serine-2,3,3-d3, 60 µg/mL) were spiked into 980 µL of a solvent with a ratio of acetonitrile/water/trifluoroacetic acid (v/v/v, 96/5/0.5). […] The mixed solution was centrifuged at 16,000 g for 10 minutes, and the supernatant was separated and injected into LC-MS/MS at a volume of 5 µL. The ultra-high-performance liquid chromatography system consisted of a pump (LC-40D X3), an autosampler (SIL-40CX3), a column oven (CTO-40C), and a system controller (SCL-40) from Shimadzu (Duisburg, Germany), and the mass spectrometer used was a QTRQP LC-MS/MS 6500+ from SCIEX (Framingham, MA, USA). The column used was a CROWNPAK CR-I (+) [3.0 x 150 mm, 5 micron] from DAICEL (Osaka, Tokyo), and the column oven was set to 30°C. Acetonitrile/water/trifluoroacetic acid (v/v/v, 96/5/0.5) was used as the mobile phase, and the elution was performed under isocratic conditions. Mass spectrometry detection was performed under multiple reaction monitoring (MRM) conditions in ESI+ mode. MS/MS parameters were ion spray voltage, 5500 V; temperature 500°C; curtain gas, 30 psi; ion source gas (GS1), 50 psi, ion source gas (GS2), 50 psi. The declustering potential (DP), entrance potential (EP), collision energy (CE), and collision cell exit potential (CXP) values under MRM conditions were optimized in manual tuning mode using a syringe infusion pump, and mass spectrometric analysis was performed. Data acquisition and processing were performed using AB SCIEX Analyst software.
For data set [4] the following is noted: mouse, in vivo.
Protocol: as §1
A short description of the next data set: in vivo. To be noted: mouse.

Protocol for in vivo: as §1

On to `Cl.N[C@@H](CO)C(=O)O` [L-Serine Hydrochloride (Example 3), L-serine hydrochloride], for which the discoloration or precipitation result in data set [1] is “no discoloration or precipitation occurred”. Also, in data set [2], the sociability entry was “statistically significant improvements” and the social novelty result was “statistically significant improvements”. Further, the Cl/F in data set [3] (mouse PK, serum) was 3.77±0.94 (mg/kg)/(µg/mL)/h. Moreover, in data set [3] (mouse, in vivo), the AUC(0-t) was 141 ± 37.4 µg·h/mL, the peak level (Cmax) was 77.7 ± 8.49 µg/mL, the Tmax turned out to be 37.2 min and the half-life was 108 ± 16.2 min.

For the compound `N[C@@H](CO)C(=O)O` [L-Serine, L-serine], the Cl/F in data set [4] is 4.92±1.20 (mg/kg)/(µg/mL)/h. Besides, in the data set “in vivo”, the AUC(0-t) was 81500 ± 22500 ng·h/mL, the Cmax turned out to be 67.5 ± 25.9 µg/mL, the Tmax stood at 15 min and the half-life is 72.6 ± 28.8 min.
